What follows are compounds tested against T1, Endoribonuclease toxin MazF (Escherichia coli (strain K12), UniProt P0AE70) (assay: activation of MazEF endoribonuclease cleavage – biochemical, fluorescence, single-stranded RNA substrate, uHTS hits, dose response (AID 588481)). Conditions: not given.
T1 sequence (P0AE70 whole entry): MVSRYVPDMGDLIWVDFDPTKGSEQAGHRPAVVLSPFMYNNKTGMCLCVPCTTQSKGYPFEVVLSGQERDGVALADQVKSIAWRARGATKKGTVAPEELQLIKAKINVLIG

`CCOc1ccc(N=CCC(=O)c2ccc(OC)cc2)c([N+](=O)[O-])c1` and `COc1ccc(N=CCC(=O)c2ccc(C)cc2)cc1OC` [SMR000269732] cannot be ordered by EC50: greater than 99 µM for the first, greater than 99 µM for the second.

`O=C1N=c2ccccc2=C1NNc1ccc(F)cc1` and `O=C1N=c2ccc(Br)cc2=C1NNc1ccc(F)cc1` [SMR000564049] cannot be ordered by EC50: greater than 99 µM for the first, greater than 99 µM for the second.

First: Cc1ccc(Cl)c2c1=NC(=O)C=2NNc1ccccc1
Second: O=C1N=c2ccccc2=C1NNc1cccc(Cl)c1 [(3E)-1H-indole-2,3-dione 3-[(3-chlorophenyl)hydrazone]]
The EC50 of the first is lower: 19.1 µM for the first, greater than 99 µM for the second.

`N#CC(C(=O)c1ccc([N+](=O)[O-])o1)c1nc2ccccc2[nH]1` (stereo not drawn) and `O=[N+]([O-])c1cc/c(=N\c2ccccc2O)c2no[nH]c1-2` [MLS001206694] cannot be ordered by EC50: greater than 99 µM for the first, greater than 99 µM for the second.

`Cc1oc(C)c2c(=O)ccc3c(c12)OC(=N)C(C#N)C3c1ccccc1` (stereo not drawn) and `CC1CC(=O)C2=C(C1)OC(=N)C(C#N)C2c1coc2ccccc2c1=O` (stereo not drawn) cannot be ordered by EC50: greater than 99 µM for the first, greater than 99 µM for the second.

First: O=C1N=c2ccccc2=C1NNc1ccccc1F
Second: Cc1cccc(NNC2=c3cc(F)ccc3=NC2=O)c1 [MLS000673317]
The EC50 of the first is higher: greater than 99 µM for the first, 38.7 µM for the second.

`O=C1Nc2ccc([N+](=O)[O-])cc2C1=NNc1ccc(F)cc1` and `Cc1ccc(N/N=C2/C(=O)Nc3ccc(F)cc32)cc1` [5-fluoro-3-[2-(4-methylphenyl)hydrazono]indolin-2-one] cannot be ordered by EC50: greater than 99 µM for the first, greater than 99 µM for the second.

`Cc1ccc2nc(N3C(=O)C(=O)C(C(=O)c4ccco4)C3c3cccs3)sc2c1` (stereo not drawn) and `Cc1nnc(N2C(=O)C(=O)C(C(=O)c3ccco3)C2c2ccc(C(C)(C)C)cc2)s1` (stereo not drawn) [2-(4-tert-butylphenyl)-3-(furan-2-carbonyl)-4-hydroxy-1-(5-methyl-1,3,4-thiadiazol-2-yl)-2H-pyrrol-5-one] cannot be ordered by EC50: greater than 99 µM for the first, greater than 99 µM for the second.

Compared with `Cc1cc(O)n(-c2ccc(NCc3ccc(Cl)cc3)c([N+](=O)[O-])c2)c1O` [1-{4-[(4-chlorobenzyl)amino]-3-nitrophenyl}-3-methylpyrrolidine-2,5-dione], `COc1cc2c(cc1OC)C(CC(=O)c1ccc([N+](=O)[O-])c(C)c1)=NCC2` [(2Z)-2-(6,7-dimethoxy-3,4-dihydro-2H-isoquinolin-1-ylidene)-1-(3-methyl-4-nitrophenyl)ethanone] is higher in EC50: 96.1 µM for the first, greater than 99 µM for the second.

`COc1ccc(Nc2oc3cc(=O)ccc-3cc2C(=O)NCC2CCCO2)c(OC)c1` (stereo not drawn) [2-(2,4-dimethoxyanilino)-7-oxo-N-(2-oxolanylmethyl)-1-benzopyran-3-carboxamide] and `CCCCOc1cccc(C2C(C(=O)c3ccc(C)o3)C(=O)C(=O)N2c2nnc(C)s2)c1` (stereo not drawn) [2-(3-butoxyphenyl)-3-(5-methylfuran-2-yl)carbonyl-1-(5-methyl-1,3,4-thiadiazol-2-yl)-4-oxidanyl-2H-pyrrol-5-one] cannot be ordered by EC50: greater than 99 µM for the first, greater than 99 µM for the second.

`CCOc1cccc(C2C(C(=O)c3ccc(C)o3)C(=O)C(=O)N2c2nccs2)c1` (stereo not drawn) [2-(3-ethoxyphenyl)-3-(5-methylfuran-2-yl)carbonyl-4-oxidanyl-1-(1,3-thiazol-2-yl)-2H-pyrrol-5-one] and `C=CCOc1cccc(C2C(C(=O)c3ccc(C)o3)C(=O)C(=O)N2c2nccs2)c1` (stereo not drawn) [3-(5-methylfuran-2-yl)carbonyl-4-oxidanyl-2-(3-prop-2-enoxyphenyl)-1-(1,3-thiazol-2-yl)-2H-pyrrol-5-one] are within 1.5-fold of each other in EC50: 16.9 µM for the first, 11.4 µM for the second.

`Cc1[nH]c2ccccc2c1/C=C1\N=C(c2ccc(F)cc2)OC1=O` [2-(4-fluorophenyl)-4-[(2-methyl-1H-indol-3-yl)methylene]-1,3-oxazol-5(4H)-one] and `Cc1[nH]c2ccccc2c1/C=C1\N=C(c2ccc(C(F)(F)F)cc2)OC1=O` [SMR000152363] cannot be ordered by EC50: greater than 99 µM for the first, greater than 99 µM for the second.

`O=[N+]([O-])c1ccc(N=NCc2ccccc2)c(F)c1` [2-fluoranyl-4-nitro-N-[(phenylmethylidene)amino]aniline] and `O=[N+]([O-])c1ccc(N=NCc2cccc3ccccc23)nc1` [N-(naphthalen-1-ylmethylideneamino)-5-nitro-pyridin-2-amine] cannot be ordered by EC50: greater than 99 µM for the first, greater than 99 µM for the second.

`O=C1C(=O)N(c2nccs2)C(c2ccccc2)C1C(=O)c1cc2ccccc2o1` (stereo not drawn) [3-(1-benzofuran-2-carbonyl)-4-hydroxy-2-phenyl-1-(1,3-thiazol-2-yl)-2H-pyrrol-5-one] and `CCSc1nnc(N2C(=O)C(=O)C(C(=O)c3ccco3)C2c2cccc(OC)c2)s1` (stereo not drawn) [MLS001140620] cannot be ordered by EC50: greater than 99 µM for the first, greater than 99 µM for the second.

Going from `CSc1ccc(C2C(C(=O)c3ccco3)C(=O)C(=O)N2c2nnc(SC)s2)cc1` (stereo not drawn) [3-(furan-2-carbonyl)-4-hydroxy-2-(4-methylsulfanylphenyl)-1-(5-methylsulfanyl-1,3,4-thiadiazol-2-yl)-2H-pyrrol-5-one] to `CSc1nnc(N2C(=O)C(=O)C(C(=O)c3ccc(C)o3)C2c2ccc(C)cc2)s1` (stereo not drawn) [SMR000650392], the EC50 falls from greater than 99 µM to 9.87 µM.

Compared with `O=C1Nc2ccccc2C1=NNc1ccccc1` [3-(phenylhydrazo)-2-indolone], `CCCCN1C(=O)C(=NNc2ccccc2O)c2ccccc21` [(3Z)-1-butyl-3-[(2-hydroxyphenyl)hydrazinylidene]indol-2-one] is lower in EC50: greater than 99 µM for the first, 44.9 µM for the second.

`COc1cccc(C2=Nc3nnnn3C(c3ccc(N(C)C)cc3)C2)c1` (stereo not drawn) [4-[5-(3-methoxyphenyl)-1,7-dihydro-[1,2,3,4]tetrazolo[1,5-a]pyrimidin-7-yl]-N,N-dimethyl-aniline] and `Cc1ccc(C2=Nc3nnnn3C(c3ccc(N(C)C)cc3)C2)cc1` (stereo not drawn) [SMR000092467] cannot be ordered by EC50: greater than 99 µM for the first, greater than 99 µM for the second.

`N#Cc1ccc(-n2c(O)c3[nH][nH]c(C(=O)c4ccc5ccccc5n4)c-3c2=O)cc1` [4-[(3aS,6aS)-4,6-dioxo-3-[oxo(2-quinolinyl)methyl]-3a,6a-dihydro-1H-pyrrolo[3,4-c]pyrazol-5-yl]benzonitrile] and `O=C(c1ccc2ccccc2n1)c1[nH][nH]c2c(O)n(-c3cccc(F)c3)c(=O)c1-2` [(3aS,6aS)-5-(3-fluorophenyl)-3-[oxo(2-quinolinyl)methyl]-3a,6a-dihydro-1H-pyrrolo[3,4-c]pyrazole-4,6-dione] are within 1.5-fold of each other in EC50: 15.1 µM for the first, 20.5 µM for the second.

Going from `O=c1cc2oc(O)c3cc(O)c(O)c(O)c3c-2oc1=O` [6,8,9,10-tetrahydroxypyran[3,2-c]isochromene-2,3-quinone] to `COc1cc(C2c3c(-c4cccs4)n[nH]c3OC(=N)C2C#N)cc(OC)c1O` (stereo not drawn) [SMR000275523], the EC50 rises from 80.5 µM to greater than 99 µM.

`COCc1n[nH]c2c1C(c1cc(OC)c(O)c(OC)c1)C(C#N)C(=N)O2` (stereo not drawn) [6-azanyl-4-(3,5-dimethoxy-4-oxidanyl-phenyl)-3-(methoxymethyl)-2,4-dihydropyrano[2,3-c]pyrazole-5-carbonitrile] and `Cn1c(C(C#N)C(=O)COc2ccc3ccccc3c2)nc2ccccc21` (stereo not drawn) [(2E)-2-(3-methyl-1H-benzimidazol-2-ylidene)-4-(2-naphthalenyloxy)-3-oxobutanenitrile] cannot be ordered by EC50: greater than 99 µM for the first, greater than 99 µM for the second.

Compared with `CCCN1C(=O)C(=NNc2ccc3ccccc3n2)c2ccccc21` [(3Z)-1-propyl-3-(2-quinolinylhydrazinylidene)-2-indolone], `Cc1ccc(NN=C2C(=O)N(CN3CCOCC3)c3ccccc32)cc1` [(3Z)-3-[(4-methylphenyl)hydrazinylidene]-1-(4-morpholinylmethyl)-2-indolone] is lower in EC50: greater than 99 µM for the first, 39.4 µM for the second.

Compared with `N=C(N)C1=CC(=O)/C(=C/C=c2ccc(=C(N)N)cc2)C=C1` [(4E)-4-[2-[4-[bis(azanyl)methylidene]cyclohexa-2,5-dien-1-ylidene]ethylidene]-3-oxidanylidene-cyclohexa-1,5-diene-1-carboximidamide;2-oxidanylethanesulfonic acid], `Oc1ccc2ccccc2c1C=Nn1c(O)csc1=S` [MLS002707175] is higher in EC50: 4.77 µM for the first, greater than 99 µM for the second. The first is the more potent here.

`O=C1NC(=O)N(C2CCCCC2)C(=O)C1=CCC=Nc1ccccc1` [(5Z)-5-[(E)-3-anilinoprop-2-enylidene]-1-cyclohexyl-1,3-diazinane-2,4,6-trione] and `C=c1[nH]n(-c2ccccc2)c(=O)c1=Cc1cc(C)n(C2CC2)c1C` [MLS001018445] cannot be ordered by EC50: greater than 99 µM for the first, greater than 99 µM for the second.

First: Clc1cccc(C(Cc2nc3ccccc3[nH]2)N=Nc2ccccc2)c1 (stereo not drawn) [MLS000374846]
Second: O=c1[nH]c(N=NCc2ccc(F)cc2)nc2ccccc12 [MLS000700887]
The EC50 of the first is higher: greater than 99 µM for the first, 7.12 µM for the second. The second is the more potent here.

`COc1ccc(CN=Nc2ccc([N+](=O)[O-])cc2S(=O)(=O)N2CCN(C)CC2)cc1` [MLS000553953] and `CCN(CC)c1ccc(CN=Nc2ccc([N+](=O)[O-])cn2)cc1` [N-[[4-(diethylamino)phenyl]methylideneamino]-5-nitro-pyridin-2-amine] cannot be ordered by EC50: greater than 99 µM for the first, greater than 99 µM for the second.

`CCC(N=Nc1cccc(C)c1)c1cnnc(SC)n1` (stereo not drawn) [MLS000705906] and `CCN1C(=O)C(C=NN=Cc2ccccc2)c2ccc(C3=NNC(=O)CC3)cc21` (stereo not drawn) [benzaldehyde {[1-ethyl-2-oxo-6-(6-oxo-1,4,5,6-tetrahydro-3-pyridazinyl)-1,2-dihydro-3H-indol-3-ylidene]methyl}hydrazone] cannot be ordered by EC50: greater than 99 µM for the first, greater than 99 µM for the second.

First: O=[N+]([O-])c1ccc(N=NCc2ccc3c(c2)OCO3)nc1 [N-(1,3-benzodioxol-5-ylmethylideneamino)-5-nitro-pyridin-2-amine]
Second: CC1(C)CC(=O)C(N=Nc2cc3c(cc2[N+](=O)[O-])OCCO3)C(=O)C1 [SMR000348183]
The EC50 of the first is lower: 40.5 µM for the first, greater than 99 µM for the second.

Going from `COc1ccc(C=C2CCCC(C(=O)C(F)(F)F)C2=O)cc1` (stereo not drawn) [SMR000142699] to `O=C(c1ccc2ccccc2n1)c1[nH][nH]c2c(O)n(-c3cccc(C(F)(F)F)c3)c(=O)c1-2` [SMR000212847], the EC50 falls from greater than 99 µM to 47.9 µM.

`CCOC(=O)c1c(NC=C2C(=O)NC(=O)NC2=O)sc2c1CCC2` [ethyl 2-{[(1E)-(2,4,6-trioxohexahydropyrimidin-5-yl)methylene]amino}-5,6-dihydro-4H-cyclopenta[b]thiophene-3-carboxylate] showed an EC50 greater than 99 µM.

Same assay, conditions: inactive by the depositor's call

In the case of `Cc1ccc(S(=O)(=O)N[N-][C+]2CCC(C(C)(C)C)CC2)cc1[N+](=O)[O-]` [SMR000241764], the EC50 is reported as 52 µM.

From BindingDB's records for doi:10.7270/Q2Z31X54 (Burnham Center For Chemical Genomics, 2011)
